In the NIST ThermoML archive (doi:10.1021/je034225b):

Experiments:
[1] = 297 K
[2] = xn = mol fraction of the nth substance listed; conditions: for surface tension liquid-gas: 297 K; for mass density: 100 kPa, Liquid, Pycnometric method

O [water]
Conditions | surface tension liquid-gas [mN/m]
[1] | 70.4

CNC [dimethylamine] + O
[2]
Conditions | surface tension liquid-gas [mN/m]
x1 = 0.002 | 68.4
x1 = 0.003 | 65.7
x1 = 0.004 | 65.8
x1 = 0.006 | 64.7
x1 = 0.008 | 62.8
x1 = 0.01 | 61.8
x1 = 0.013 | 60.4
x1 = 0.016 | 58.4
x1 = 0.025 | 56.1
x1 = 0.034 | 53.2
x1 = 0.043 | 51
x1 = 0.052 | 49.1
x1 = 0.061 | 48.1
x1 = 0.071 | 47.8
x1 = 0.091 | 42.4
x1 = 0.112 | 40.4
x1 = 0.135 | 38.9
x1 = 0.158 | 36.8
x1 = 0.184 | 35.3
x1 = 0.21 | 33.7

[2], 298.15 K
Conditions | mass density [kg/m3]
x1 = 0.001 | 998
x1 = 0.002 | 994
x1 = 0.004 | 988
x1 = 0.008 | 987
x1 = 0.016 | 984
x1 = 0.025 | 974
x1 = 0.034 | 969
x1 = 0.043 | 967
x1 = 0.091 | 941
x1 = 0.146 | 918
x1 = 0.21 | 888

O=S(=O)(O)O [sulfuric acid] + O
[2]
Conditions | surface tension liquid-gas [mN/m]
x1 = 0.001 | 71.6
x1 = 0.003 | 71.4
x1 = 0.006 | 71.2
x1 = 0.008 | 71.9
x1 = 0.026 | 72.4
x1 = 0.052 | 73.1
x1 = 0.09 | 74
x1 = 0.125 | 74.7
x1 = 0.18 | 75.2
x1 = 0.25 | 73.6
x1 = 0.35 | 72.3
x1 = 0.48 | 69.4

mass density [kg/m3], [2]
Conditions | 298.15 K | 571.15 K
x1 = 0.001 | 998 | –
x1 = 0.003 | 1005 | 1005
x1 = 0.006 | 1017 | –
x1 = 0.008 | 1024 | –
x1 = 0.026 | 1085 | –
x1 = 0.052 | 1156 | –
x1 = 0.09 | 1253 | –
x1 = 0.125 | 1328 | –
x1 = 0.18 | 1422 | –
x1 = 0.25 | 1528 | –
x1 = 0.35 | 1622 | –
x1 = 0.48 | 1725 | –
